Assay results: patent US12479803B2, “Antimalarial compounds” (UNIVERSITY OF CENTRAL FLORIDA RESEARCH FOUNDATION, INC., priority 2019, dated 2025)
Where two headings read alike, the source gives them in different places.

Legend:
[1] = system: CQ-resistant (Dd2) strain of P. falciparum; assay: In vitro antiplasmodial activity, SYBR Green I fluorescence assay, Dd2 strain; format: cell-based, Plasmodium falciparum
Method: (§1) A set of 104 new styrylquinoline derivatives were synthesized and investigated for in vitro their antimalarial activity. To test antimalarial activities, different dilutions of compounds were added to P. falciparum culture. Following 72 h incubation at 37° C. in an atmosphere containing 5% CO2, the inhibitory property of the compounds were determined by SYBR Green I fluorescence assay. Meanwhile, SARs studies were conducted.
The SAR studies were focused on improving the in vitro activity of 2-arylvinylquinolines against the CQ-resistant Pf Dd2 strain.

[2] = Cytotoxicity assay using MTS in human hepatocytes; format: cell-based; conditions: human; Table 6B, unit inferred; footnote IC50 (HepG2); read-out: Cytotoxic activity HepG2 (converted)
HepG2 = assay: Cytotoxicity assay using MTS in human hepatocytes; format: cell-based; conditions: for SI, selectivity index = [IC50 (HepG2)/IC50 (Dd2)]: HepG2 versus Dd2
[3] = system: P. falciparum 3D7 strain (CQ-sensitive); assay: In vitro antiplasmodium activity, 3D7 strain; format: cell-based, Plasmodium falciparum
Method: as §1

[4] = system: β-hematin crystal formation; assay: β-hematin inhibition experiment; format: biochemical; conditions: 100 μM hemin, 16 h at 37° C., up to 200 μM compound
Method: CQ and other aminoquinolines are known to fight against the malaria parasites by blocking hematin biocrystallization (hemozoin formation) through π-π stacking between the aminoquinoline scaffold and the heme. As a result, the accumulated toxic heme causes the parasite death by introducing oxidative membrane damage. β-hematin inhibition experiments were performed to determine possible mode of actions of arylvinylquinolines. FIG. 5A is an example according to various embodiments illustrating images of β-hematin crystals after incubation of 100 μM hemin, propionate buffer, phosphatidylcholine and, several concentrations of compound for 16 h at 37° C. […] In FIGS. 5A and 5B, the data are mean±SEM.

[5] = In vitro microsomal turnover assay (metabolic stability)
Method: Selectivity of compounds were determined by cytoxicity assay using MTS [(3-(4,5-dimethylthiazol-2-yl)-5-(3-carboxymethoxyphenyl)-2-(4-sulfophenyl)-2H-tetrazolium) in human hepatocytes. The metabolic stability of compounds was determined in mouse liver microsomes using an NADPH-regenerating system. The aqueous solubility at pH 7.4 was determined by UV-visible absorption based method. The permeability was assessed by the in vitro double-sink parallel artificial membrane permeability assay 52 that is a model for the passive transport from the gastrointestinal tract into the blood stream.
To assess the metabolic stability, the selected compounds were subjected to an in vitro microsomal turnover assay with mouse liver microsomal preparations. This assay determines the percentage of the parent compound residues after 60 min incubation (Table 7).

[6] = CQ-resistant (Dd2) strain, 72 h incubation, read-out: EC50 (nmol)
[7] = Table 6A, unit not given (text gives nM), footnote calls it IC50, read-out: Antiplasmodium activity Dd2 (converted)
[8] = Table 6A, nM, footnote calls it IC50, read-out: Antiplasmodium activity 3D7 (converted)

SMILES | SI, selectivity index = [IC50 (HepG2)/IC50 (Dd2)] (HepG2) | EC50 [1, 6] [nM] | EC50 [1, 7] [nM] | IC50 (HepG2) [nM] | EC50 [3, 8] [nM] | further results
CCN(CC)CCCC(C)Nc1ccnc2cc(Cl)ccc12 (stereo not drawn) [CQ, Chloroquine, reference compound] | 60 |  |  |  |  | RI, resistance index = [IC50 (Dd2)/IC50 (3D7)] [1]: 9.8; EC50 ([1]; Plasmodium falciparum, DD2, 72 h, CQ-resistant (Dd2) strain, 72 h incubation): 174 ± 15.5 nM; EC50 ([1]; Plasmodium falciparum, DD2, read-out: Antiplasmodium activity Dd2, Table 6A, unit not given (text gives nM), footnote calls it IC50): 174 ± 15.5 nM; IC50 [2]: 10400 ± 860 nM; EC50 ([3]; Plasmodium falciparum, 3D7, Table 6A, nM, footnote calls it IC50, read-out: Antiplasmodium activity 3D7 (converted)): 17.8 ± 5.5 nM; inhibitory activity towards β-hematin formation [4]: potently inhibited
CN(C)CCNc1cc(/C=C/c2ccccc2F)nc2ccc(Cl)cc12 [Compound 30] | 186 | 26 ± 0.9 | 26 | 4830 |  | EC50 ([1]; Dd2 strain, read-out: EC50): 26 ± 0.9 nM; RI, resistance index = [IC50 (Dd2)/IC50 (3D7)] ([1]; Dd2 versus 3D7): 0.5; EC50 ([3]; 3D7 strain, read-out: EC50): 55.9 ± 9.5 nM
CN(C)CCNc1cc(/C=C/c2cccc(F)c2)nc2ccc(Cl)cc12 [Compound 31] | 810 | 5.9 ± 1.4 | 5.9 | 4780 |  | RI, resistance index = [IC50 (Dd2)/IC50 (3D7)] ([1]; Dd2 versus 3D7): 0.3; Projected t1/2 [5]: 43.2 min; Clint ([5]; mouse, microsomes): 32.1 µL/min/mg; % remaining after 60 min ([5]; mouse, microsomes, 1 h): 38.2%; EC50 ([3]; 3D7 strain, read-out: EC50): 23 ± 2.8 nM
CN(C)CCNc1cc(/C=C/c2ccncc2)nc2ccc(Cl)cc12 [Compound 50] | 212 | 28.8 ± 5 | 28.8 |  |  | RI, resistance index = [IC50 (Dd2)/IC50 (3D7)] [1]: 0.6 0.6 0.5 0.3 0.5; EC50 ([1]; Dd2 strain, read-out: EC50): 28.8 ± 5 nM; IC50 (HepG2; Table 6B, unit inferred, footnote IC50 (HepG2), read-out: Cytotoxic activity HepG2 (converted)): 6110 nM; Clint ([5]; mouse liver microsomes): 62.2 µL/min/mg; Projected t1/2 ([5]; mouse liver microsomes (MLM)): 22.3 min; % remaining after 60 min ([5]; mouse liver microsomes, 60 min incubation): 15.5%; EC50 ([3]; read-out: Antiplasmodium activity 3D7 (converted)): 56.6 nM
Fc1ccc(/C=C/c2cc(NCc3ccccn3)c3cc(Cl)ccc3n2)cc1 [Compound 72] | 127 | 156 ± 34.5 | 156 ± 34.5 | 19800 ± 3270 | 248 ± 35.1 | RI, resistance index = [IC50 (Dd2)/IC50 (3D7)] [1]: 0.6; EC50 ([1]; Dd2 strain, read-out: EC50): 156 ± 34.5 nM; Projected t1/2 [5]: 65.3 min; Clint ([5]; mouse, microsomes): 21.2 µL/min/mg; % remaining after 60 min ([5]; mouse, microsomes, 1 h): 52.9%
Fc1ccc(/C=C/c2cc(NCCN3CCOCC3)c3cc(Cl)ccc3n2)cc1 [Compound 81] | 711 | 24.2 ± 0.8 | 24.2 ± 0.8 | 17200 ± 3300 | 41.8 ± 12.7 | RI, resistance index = [IC50 (Dd2)/IC50 (3D7)] [1]: 0.6
Fc1ccc(/C=C/c2cc(NCCCN3CCOCC3)c3cc(Cl)ccc3n2)cc1 [Compound 90] |  | 40.8 ± 5.6 |  |  |  | 
FC(F)(F)c1ccc(/C=C/c2cc(NCCCN3CCOCC3)c3cc(Cl)ccc3n2)cc1 [Compound 91] |  | 84.8 ± 6.3 |  |  |  | 
Fc1ccc(/C=C/c2cc(NCCCCN3CCOCC3)c3cc(Cl)ccc3n2)cc1 [Compound 92] | 1478 | 2.4 ± 1.1 | 2.4 ± 1.1 | 3550 ± 384 | 6.9 ± 1.3 | Projected t1/2 [5]: 22.2 min; Clint ([5]; mouse, microsomes): 62.4 µL/min/mg; % remaining after 60 min ([5]; mouse, microsomes, 1 h): 15.4%
Clc1ccc2nc(/C=C/c3ccncc3)cc(NCCCCN3CCOCC3)c2c1 [Compound 93] | 561 | 9.9 ± 1.3 | 9.9 | 5670 | 20.8 | EC50 ([1]; Dd2 strain, read-out: EC50): 9.9 ± 1.3 nM; Projected t1/2 [5]: 14.4 min; Clint ([5]; mouse, microsomes): 96.2 µL/min/mg; % remaining after 60 min ([5]; mouse, microsomes, 1 h): 5.62%
CN1CCN(CCCCNc2cc(/C=C/c3ccccc3)nc3ccc(Cl)cc23)CC1 [Compound 94] |  | 58.9 ± 8.8 |  |  |  | 
CN1CCN(CCCCNc2cc(/C=C/c3ccc(F)cc3)nc3ccc(Cl)cc23)CC1 [Compound 95] |  | 43 ± 7.5 |  |  |  | 
CN1CCN(CCCCNc2cc(/C=C/c3ccncc3)nc3ccc(Cl)cc23)CC1 [Compound 96] | 251 | 33.4 ± 5.4 | 33.4 ± 5.4 | 8380 ± 2580 | 36.1 ± 11.3 | RI, resistance index = [IC50 (Dd2)/IC50 (3D7)] [1]: 0.9
FC(F)(F)c1ccc(/C=C/c2cc(NCCCCN3CCOCC3)c3cc(Cl)ccc3n2)cc1 [Compound 98] | 332 | 30.7 ± 5.2 | 30.7 ± 5.2 | 10200 ± 2390 | 73.8 ± 9.7 | Projected t1/2 [5]: 64.9 min; Clint ([5]; mouse, microsomes): 21.4 µL/min/mg; % remaining after 60 min ([5]; mouse, microsomes, 1 h): 52.7%
FC(F)(F)c1ccccc1/C=C/c1cc(NCCCCN2CCOCC2)c2cc(Cl)ccc2n1 [Compound 99] |  |  |  |  |  | EC50 ([1]; Dd2 strain, read-out: EC50): 104 ± 7.2 nM
FC(F)(F)c1cccc(/C=C/c2cc(NCCCCN3CCOCC3)c3cc(Cl)ccc3n2)c1 [Compound 100] |  | 33.9 ± 1.4 |  |  |  | 
FC(F)(F)Oc1ccc(/C=C/c2cc(NCCCCN3CCOCC3)c3cc(Cl)ccc3n2)cc1 [Compound 101] |  | 56.6 ± 7.6 |  |  |  | 
